From ChEMBL document CHEMBL3045629, “Synthesis and Herbicidal Activity of Hydantocidin Analogues: Modification of the Carbonyl Groups in Spirohydantoin” (1995) come the findings set out here.

Format in all cases: functional
Test [1] concerns Echinochloa crus-galli. As to the kind of experiment: Herbicidal activity against three-leaf stage Echinochloa crus-galli (barnyard grass) exposed to foliar compound spraying at 1000 ppm measured 10 days after compound treatment.
For test [2], the system named is Ambrosia artemisiifolia. Kind of test: Herbicidal activity against three-leaf stage Ambrosia artemisiifolia (ragweed) exposed to foliar compound spraying at 1000 ppm measured 10 days after compound treatment.
In test [3] the test system is Ipomoea purpurea. As to the kind of experiment: Herbicidal activity against three-leaf stage Ipomoea purpurea (common morning-glory) exposed to foliar compound spraying at 1000 ppm measured 10 days after compound treatment.
In test [4] the test system is Setaria viridis. As to the kind of experiment: Herbicidal activity against three-leaf stage Setaria viridis (green foxtail) exposed to foliar compound spraying at 1000 ppm measured 10 days after compound treatment.
For test [5], the system named is Digitaria sanguinalis. As to the kind of experiment: Herbicidal activity against three-leaf stage Digitaria sanguinalis (hairy crabgrass) exposed to foliar compound spraying at 1000 ppm measured 10 days after compound treatment.
Test [6] deals with Panicum dichotomiflorum. As to the kind of experiment: Herbicidal activity against three-leaf stage Panicum dichotomiflorum exposed to foliar compound spraying at 1000 ppm measured 10 days after compound treatment.
Test [7] deals with Abutilon theophrasti. As to the kind of experiment: Herbicidal activity against three-leaf stage Abutilon theophrasti (velvetleaf) exposed to foliar compound spraying at 1000 ppm measured 10 days after compound treatment.
Test [8] has as its system Sorghum halepense. As to the kind of experiment: Herbicidal activity against three-leaf stage Sorghum halepense (Johnson grass) exposed to foliar compound spraying at 1000 ppm measured 10 days after compound treatment.
The subject of test [9] is Xanthium strumarium. As to the kind of experiment: Herbicidal activity against three-leaf stage Xanthium strumarium (cocklebur) exposed to foliar compound spraying at 1000 ppm measured 10 days after compound treatment.
In test [10] the test system is Solanum nigrum. Kind of test: Herbicidal activity against three-leaf stage Solanum nigrum (black nightshade) exposed to foliar compound spraying at 1000 ppm measured 10 days after compound treatment.

Turning to `O=C1NC[C@]2(N1)O[C@H](CO)[C@@H](O)[C@H]2O`, the Activity in test [1] is on record as 10%; in [2] it was 10%; in [3], 0%; in test [4] it was 10%; in test [5] it was 0%; in [6], 10%. Besides, the Activity in [7] was 10%; in test [8], 10%; in test [9] it was 0%; in [10] it was 10%.

Regarding `O=C1NC(NCc2ccccc2)=N[C@]12O[C@H](CO)[C@@H](O)[C@H]2O`, the Activity came to 0% in test [1]; 95% in test [2]; 10% in test [3]; 0% in test [4]; 0% in test [5]; 0% in test [6]. The Activity stood at 0% in test [7], 0% in test [8], 95% in test [9] and 30% in test [10].

As for `O=C1NC(=O)[C@]2(N1)O[C@H](CO)[C@@H](O)[C@H]2O` [HYDANTOCIDIN], the Activity in test [1], in test [2], in test [3], in test [4], in [5] and in test [6] was 95% throughout. Further, the Activity in test [7], in [8], in [9] and in [10] was 95% in each case.
